The text below walks through data of US20260007617A1, “METHOD FOR TREATING RENAL CELL CARCINOMA OR CANCER” (Lantern Pharma Inc., priority 2023, published 2026).

pIC50: −log10 of the molar value.

Format in all cases: cell-based
Test [1] concerns RXF393. Briefly: cell viability IC50 over 72 hours, RXF393 kidney cell line. The note with it: for pIC50: Homo sapiens, RXF 393, RXF393 cell line, Kidney, 72 hours. How it is done:
(§1) FIG. 4 details the sensitivity of various cell lines to LP-184, showing cell death over 72 hours. Sensitivity, gauged by IC50 data, reflects how effectively a substance can inhibit a particular biological or biochemical function. […] This IC50 value, indicating the concentration needed to reduce cell viability by 50%, is key to understanding the compound's efficacy and the temporal response of the cells to the substance. Such analyses are vital for new drug development and therapeutic approaches, offering important insights into how cells react to different compounds over time.
(§2) Sensitivity, gauged by IC50 data, reflects how effectively a substance can inhibit a particular biological or biochemical function. […] This IC50 value, indicating the concentration needed to reduce cell viability by 50%, is key to understanding the compound's efficacy and the temporal response of the cells to the substance. Such analyses are vital for new drug development and therapeutic approaches, offering important insights into how cells react to different compounds over time.

Test [2] deals with TK10. Description: cell viability IC50 over 72 hours, TK10 kidney cell line. Conditions: Homo sapiens, TK-10. How it is done: as §1, §2
The subject of test [3] is UO31. Briefly: cell viability IC50 over 72 hours, UO31 kidney cell line. Conditions: Homo sapiens, UO-31. How it is done: as §1, §2
Test [4] deals with SN12C. Briefly: cell viability IC50 over 72 hours, SN12C kidney cell line. The note with it: Homo sapiens. How it is done: as §1, §2
Test [5] has as its system CAK11. Briefly: cell viability IC50 over 72 hours, CAK11 kidney cell line. How it is done: as §1, §2
For test [6], the system named is X7860. Briefly: cell viability IC50 over 72 hours, X7860 kidney cell line. How it is done:
as §1, §2

In test [7] the test system is ACHN. Briefly: cell viability IC50 over 72 hours, ACHN kidney cell line. The note with it: Homo sapiens. As for the experimental part: as §1, §2
Test [8] deals with A498. Description: cell viability IC50 over 72 hours, A498 kidney cell line. Conditions: for pIC50: Homo sapiens, A498 cell line, Kidney, 72 hours. How it is done:
as §1, §2

The test system of test [9] is 786O. Description: sensitivity of renal cell line 786O to LP-184. Conditions: 786O cell line. The source says:
(§3) By contrast, the RPE1 cell lines acted as a negative control, showcasing a distinct reaction to the treatment.

The subject of test [10] is 769P. Description: sensitivity of renal cell line 769P to LP-184. The note with it: 769P cell line.
Description: as §3

The pIC50 is −log10 of the IC50, conventionally taken in molar units. Low readings indicate a large IC50, high ones a small IC50. `CC1=C(CN(O)C(N)=O)C2=C(C)C3(CC3)[C@](C)(O)C(=O)C2=C1` [LP-284, (+)-hydroxyureamethyl acylfulvene]: the negative logarithm of the IC50 (pIC50) is 6.48 in test [1]; 5.70 in test [2]; 6.60 in test [3]; 5.58 in [4]; 5.72 in [5]; 5.65 in test [6]. In addition, the pIC50 is 5.95 in test [7] and 5.87 in test [8].
For the compound `CC1=C(CN(O)C(N)=O)C2=C(C)C3(CC3)[C@@](C)(O)C(=O)C2=C1` [LP-184, (−)-hydroxyureamethyl acylfulvene], the negative-log IC50 (pIC50) in test [1] is 6.82; in [2], 6.50; in test [3], 6.75; in [4], 6.46; in [5] it was 6.55; in test [6], 6.48. Also, the pIC50 in test [7] was 6.65; in test [8], 6.75. Further, the “sensitivity of cell line (in words)” value was “high sensitivity” in [1] (RXF393 clear cell renal carcinoma cell line), “low sensitivity” in test [9], “high sensitivity” in test [8] (A498 clear cell renal carcinoma cell line) and “low sensitivity” in test [10].
